pKi: −log10 of the molar value.

This test deals with T1, Delta-aminolevulinic acid dehydratase (Escherichia coli (strain K12), UniProt P0ACB2).
T1 sequence (P0ACB2 whole entry): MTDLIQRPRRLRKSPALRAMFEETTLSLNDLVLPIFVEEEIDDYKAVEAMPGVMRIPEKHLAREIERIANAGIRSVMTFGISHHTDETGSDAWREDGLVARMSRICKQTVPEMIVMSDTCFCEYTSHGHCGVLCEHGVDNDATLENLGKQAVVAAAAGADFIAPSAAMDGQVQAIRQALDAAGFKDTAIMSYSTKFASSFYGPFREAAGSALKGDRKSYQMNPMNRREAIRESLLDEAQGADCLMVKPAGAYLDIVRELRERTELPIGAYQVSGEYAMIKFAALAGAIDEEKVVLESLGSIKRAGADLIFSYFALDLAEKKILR
Kind of test: PBGS Assay. The conditions noted are these: pH 8.1; 37 °C. From the text:
The PBGS assay is a colorimetric assay based on the reaction between PBG and 4-dimethylaminobenzaldehyde (Ehrlich's reagent).
Broadly, the pKi is −log10 of the Ki, conventionally taken in molar units. Read a high pKi as a low Ki. `CC(=O)CCC(=O)O` [Substrate analogue, 8] showed a negative-log Ki (pKi) of 2.66.

On to `O=C(O)CCC(=O)CF` [Substrate analogue, 9], for which the pKi was 4.07.

Compound `COC(=O)CCC(=O)O` [Substrate analogue, 10] gave a negative-log Ki (pKi) of 1.42.

As for `CNC(=O)CCC(=O)O` [Substrate analogue, 12], the pKi was 1.44.

Turning to `CC(=O)OCC(=O)O` [Substrate analogue, 13], the pKi is 1.61.

`NCC(=O)OCC(=O)O` [Substrate analogue, 14] gave a pKi of 1.74.

For the compound `CC(=O)NCC(=O)O` [Substrate analogue, 15], the pKi was 1.73.

For the compound `CC(=O)CC[N+](=O)[O-]` [Substrate analogue, 17], the pKi was 4.55.

With `O=C(CF)CC[N+](=O)[O-]` [Substrate analogue, 18], the pKi is 4.68.

The compound `COC(=O)CC[N+](=O)[O-]` [Substrate analogue, 19] had a pKi of 2.73.

`O=C(O)CC[N+](=O)[O-]` [Substrate analogue, 20] showed a pKi of 1.35.

In turn, `COC(=O)CCC(=O)NCC(=O)CCC(=O)O` [Substrate analogue, 24] showed a pKi of 3.61.

In turn, `COC(=O)CCC(=O)NCC(=O)CC[N+](=O)[O-]` [Substrate analogue, 28] showed a pKi of 4.70.

Consider `O=C(O)CCC(=O)CCCCC[N+](=O)[O-]` [Substrate analogue, 31], for which the pKi is 2.31.

Regarding `O=C(O)CCCCNC(=O)CCC(=O)O` [Substrate analogue, 32], the pKi was 1.64.

Compound `O=C(O)CCCCNC(=O)CC[N+](=O)[O-]` [Substrate analogue, 33] had a pKi of 1.74.

`O=C(O)CCC(=O)O` [Succinic acid, 6] had a negative logarithm of the Ki (pKi) of 1.90.

Values taken from BindingDB's records for doi:10.1002/1439-7633(20010504)2 (University of NeuchÂTel, 2001).
